Test results taken from US8445712B2, “Phospholipid derivative and pH-responsive liposomes” (NOF Corporation, priority 2009, dated 2013).

Experiment: Measurement test of pH-sensitiveness of liposome (release of enclosed pyranine/DPX at a given pH)
Type: physicochemical
Conditions: Example 15 (Table 2) compared with Example 19 (Table 3); 11 mol % derivative in EYPC liposome
Method: Using the liposomes prepared in Examples 5-13 and Comparative Example 1, pH-sensitiveness measurement tests were performed.
To the liposome solution obtained in Example 5 was added phosphate buffered saline (hereinafter to be indicated as “PBS”) to adjust the lipid concentration of the liposome to 1.6 mmol/l. The PBS (2469 μl) adjusted to a given pH with 1N hydrochloric acid was placed in a quartz cell, a liposome dispersion (31 μl) was added thereto at 37° C. to adjust the lipid concentration to 20 μmol/l. After incubation at 37° C. for 15 min, fluorescence intensity (F15min) was measured. In addition, 10% aqueous Triton X-100 (manufactured by Sigma-Aldrich Japan Co. Ltd.) solution (25 μl) was added thereto, and the mixture was stirred, and the fluorescence intensity (Fmax) was measured.
The release (%) was calculated by the following formula.
[formula] F15min: fluorescence intensity at 15 min after liposome addition F0: fluorescence intensity at t=0 by measurement with PBS at pH 7.4 Fmax: fluorescence intensity after addition of Triton

Octaglycerolglutaryl Distearylphosphatidylethanolamine 1,2-Cyclohexanedicarboxylic Acid Derivative [DSPE-CHexPG8G]
pH sensitive property (comparison): stronger pH sensitive property
